According to patent US20250145594A1, “MODULATORS OF THE INTEGRATED STRESS PATHWAY” (Calico Life Sciences LLC, priority 2020, published 2025):

System: ATF4 luciferase reporter in HEK293T cells
Assay: ATF4-Luc assay (in vitro model of VWMD)
Assay type: cell-based, human
Conditions: Homo sapiens, HEK-293T, 7 h, HEK293T cells carrying the ATF4 luciferase reporter, 1 μg/mL tunicamycin, One Glo luminescence
How it was run: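 Stable HEK293T line expressing firefly luciferase behind the human ATF4 5′-UTR, treated with 1 μg/mL tunicamycin plus compound for 7 hours. Luminescence read with One Glo; EC50 determined.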

SMILES	EC50
O=C(NC12CC(c3cn(-c4ccc(Cl)c(F)c4)nn3)(C1)C2)[C@H]1C[C@@H](O)c2cc(Cl)ccc2O1 [Compound 311, (2R,4R)-6-chloro-N-{3-[1-(4-chloro-3-fluorophenyl)-1H-1,2,3-triazol-4-yl]bicyclo[1.1.1]pentan-1-yl}-4-hydroxy-3,4-dihydro-2H-1-benzopyran-2-carboxamide]	< 10 nM
O=C(NC12CC(n3cc([C@H]4C[C@@H](OC(F)F)C4)nn3)(C1)C2)[C@H]1C[C@@H](O)c2cc(Cl)ccc2O1 [Compound 544, (2R,4R)-6-chloro-N-(3-{4-[(1s,3S)-3-(difluoromethoxy)cyclobutyl]-1H-1,2,3-triazol-1-yl}bicyclo[1.1.1]pentan-1-yl)-4-hydroxy-3,4-dihydro-2H-1-benzopyran-2-carboxamide]	< 10 nM
O=C(NC12CC(n3cc(-c4ccc(OC(F)(F)F)cc4)nn3)(C1)C2)[C@H]1C[C@@H](O)c2cc(Cl)ccc2O1 [Compound 357, (2R,4R)-6-chloro-4-hydroxy-N-(3-{4-[4-(trifluoromethoxy)phenyl]-1H-1,2,3-triazol-1-yl}bicyclo[1.1.1]pentan-1-yl)-3,4-dihydro-2H-1-benzopyran-2-carboxamide]	< 10 nM
O=C(N[C@H]1CC[C@H](n2cc(-c3ccc(OC(F)(F)F)cn3)cn2)CC1)[C@H]1C[C@@H](O)c2cc(Cl)ccc2O1 [Compound 481, (2R,4R)-6-chloro-4-hydroxy-N-[(1r,4R)-4-{4-[5-(trifluoromethoxy)pyridin-2-yl]-1H-pyrazol-1-yl}cyclohexyl]-3,4-dihydro-2H-1-benzopyran-2-carboxamide]	< 10 nM
O=C(NC12CCC(n3cc(OCCOC(F)(F)F)cn3)(C1)C2)[C@H]1C[C@@H](O)c2cc(Cl)ccc2O1 [Compound 594, (2R,4R)-6-chloro-4-hydroxy-N-(4-{4-[2-(trifluoromethoxy)ethoxy]-1H-pyrazol-1-yl}bicyclo[2.1.1]hexan-1-yl)-3,4-dihydro-2H-1-benzopyran-2-carboxamide]	50 to 250 nM
CC(F)(F)CCCOc1cnn(C23CC(NC(=O)[C@H]4C[C@@H](O)c5cc(Cl)ccc5O4)(C2)C3)c1 [Compound 521, (2R,4R)-6-chloro-N-(3-{4-[(4,4-difluoropentyl)oxy]-1H-pyrazol-1-yl}bicyclo[1.1.1]pentan-1-yl)-4-hydroxy-3,4-dihydro-2H-1-benzopyran-2-carboxamide]	10 to 50 nM
O=C(NC12CC(c3ccc(OCCCOC(F)(F)F)nc3)(C1)C2)[C@H]1C[C@@H](O)c2cc(Cl)ccc2O1 [Compound 438, (2R,4R)-6-chloro-4-hydroxy-N-(3-{6-[3-(trifluoromethoxy)propoxy]pyridin-3-yl}bicyclo[1.1.1]pentan-1-yl)-3,4-dihydro-2H-1-benzopyran-2-carboxamide]	10 to 50 nM
O=C(NC12CC(n3cc(-c4ccc(C(F)(F)F)cn4)cn3)(C1)C2)[C@H]1C[C@@H](O)c2cc(Cl)c(F)cc2O1 [Compound 482, (2R,4R)-6-chloro-7-fluoro-4-hydroxy-N-(3-{4-[5-(trifluoromethyl)pyridin-2-yl]-1H-pyrazol-1-yl}bicyclo[1.1.1]pentan-1-yl)-3,4-dihydro-2H-1-benzopyran-2-carboxamide]	< 10 nM
O=C(NC12CC(n3cc(C[C@H]4C[C@@H](OC(F)(F)F)C4)cn3)(C1)C2)[C@H]1C[C@@H](O)c2cc(Cl)ccc2O1 [Compound 531, (2R,4R)-6-chloro-4-hydroxy-N-[3-(4-{[(1s,3R)-3-(trifluoromethoxy)cyclobutyl]methyl}-1H-pyrazol-1-yl)bicyclo[1.1.1]pentan-1-yl]-3,4-dihydro-2H-1-benzopyran-2-carboxamide]	10 to 50 nM
O=C(NC12CC(n3cc(C(=O)N4CC[C@@H](OC(F)F)C4)cn3)(C1)C2)[C@H]1C[C@@H](O)c2cc(Cl)ccc2O1 [Compound 399, (2R,4R)-6-chloro-N-(3-{4-[(3R)-3-(difluoromethoxy)pyrrolidine-1-carbonyl]-1H-pyrazol-1-yl}bicyclo[1.1.1]pentan-1-yl)-4-hydroxy-3,4-dihydro-2H-1-benzopyran-2-carboxamide]	250 to 500 nM
O=C(NC12CC(n3cc(-c4ccc(C5CC5)cn4)cn3)(C1)C2)[C@H]1C[C@@H](O)c2cc(Cl)ccc2O1 [Compound 570, (2R,4R)-6-chloro-N-{3-[4-(5-cyclopropylpyridin-2-yl)-1H-pyrazol-1-yl]bicyclo[1.1.1]pentan-1-yl}-4-hydroxy-3,4-dihydro-2H-1-benzopyran-2-carboxamide]	< 10 nM
O=C(NC12CC(n3cc(-c4ccc(C(F)(F)F)cn4)cn3)(C1)C2)[C@@H]1C[C@@H](O)c2cc(Cl)c(F)cc2O1 [Compound 477, (2S,4R)-6-chloro-7-fluoro-4-hydroxy-N-(3-{4-[5-(trifluoromethyl)pyridin-2-yl]-1H-pyrazol-1-yl}bicyclo[1.1.1]pentan-1-yl)-3,4-dihydro-2H-1-benzopyran-2-carboxamide]	< 10 nM
C[C@H](COC(F)(F)F)N(C)c1cnn(C23CC(NC(=O)[C@H]4C[C@@H](O)c5cc(Cl)ccc5O4)(C2)C3)c1 [Compound 448, (2R,4R)-6-chloro-4-hydroxy-N-[3-(4-{methyl[(2R)-1-(trifluoromethoxy)propan-2-yl]amino}-1H-pyrazol-1-yl)bicyclo[1.1.1]pentan-1-yl]-3,4-dihydro-2H-1-benzopyran-2-carboxamide]	500 to 2000 nM
O=C(NC12CC(c3cc(OCCCOC(F)(F)F)ncn3)(C1)C2)[C@H]1C[C@@H](O)c2cc(Cl)ccc2O1 [Compound 648, (2R,4R)-6-chloro-4-hydroxy-N-(3-{6-[3-(trifluoromethoxy)propoxy]pyrimidin-4-yl}bicyclo[1.1.1]pentan-1-yl)-3,4-dihydro-2H-1-benzopyran-2-carboxamide]	< 10 nM
O=C(NC12CC(n3cc(OCCOC(F)(F)F)cn3)(C1)C2)[C@@H]1C[C@@H](O)c2cc(Cl)c(Cl)cc2O1 [Compound 434, (2S,4R)-6,7-dichloro-4-hydroxy-N-(3-{4-[2-(trifluoromethoxy)ethoxy]-1H-pyrazol-1-yl}bicyclo[1.1.1]pentan-1-yl)-3,4-dihydro-2H-1-benzopyran-2-carboxamide]	< 10 nM
C[Si]1(C)CCN(C(=O)c2cnn(C34CC(NC(=O)[C@H]5C[C@@H](O)c6cc(Cl)ccc6O5)(C3)C4)c2)C1 [Compound 401, (2R,4R)-6-chloro-N-{3-[4-(3,3-dimethyl-1,3-azasilolidine-1-carbonyl)-1H-pyrazol-1-yl]bicyclo[1.1.1]pentan-1-yl}-4-hydroxy-3,4-dihydro-2H-1-benzopyran-2-carboxamide]	250 to 500 nM
O=C(NC12CC(n3cc(-c4cnc(C5CC5)nc4)cn3)(C1)C2)[C@H]1C[C@@H](O)c2cc(Cl)ccc2O1 [Compound 365, (2R,4R)-6-chloro-N-{3-[4-(2-cyclopropylpyrimidin-5-yl)-1H-pyrazol-1-yl]bicyclo[1.1.1]pentan-1-yl}-4-hydroxy-3,4-dihydro-2H-1-benzopyran-2-carboxamide]	< 10 nM
CN(CCOC(F)(F)F)c1cnn(C23CC(NC(=O)[C@H]4C[C@@H](O)c5cc(Cl)ccc5O4)(C2)C3)c1 [Compound 411, (2R,4R)-6-chloro-4-hydroxy-N-[3-(4-{methyl[2-(trifluoromethoxy)ethyl]amino}-1H-pyrazol-1-yl)bicyclo[1.1.1]pentan-1-yl]-3,4-dihydro-2H-1-benzopyran-2-carboxamide]	10 to 50 nM
O=C(CO[C@H]1C[C@@H](OC(F)(F)F)C1)NC12CCC(NC(=O)[C@H]3C[C@@H](O)c4cc(C(F)(F)F)ccc4O3)(CC1)[C@@H](O)C2 [Compound 489, (2R,4R)-4-hydroxy-N-[(2S)-2-hydroxy-4-(2-{[(1s,3R)-3-(trifluoromethoxy)cyclobutyl]oxy}acetamido)bicyclo[2.2.2]octan-1-yl]-6-(trifluoromethyl)-3,4-dihydro-2H-1-benzopyran-2-carboxamide]	< 10 nM
O=C(NC12CC(n3cc(N4CC[C@@H](OC(F)F)C4)cn3)(C1)C2)[C@H]1C[C@@H](O)c2cc(Cl)ccc2O1 [Compound 318, (2R,4R)-6-chloro-N-(3-{4-[(3R)-3-(difluoromethoxy)pyrrolidin-1-yl]-1H-pyrazol-1-yl}bicyclo[1.1.1]pentan-1-yl)-4-hydroxy-3,4-dihydro-2H-1-benzopyran-2-carboxamide]	50 to 250 nM
O=C(NC12CC(n3cc(-c4ccc(OC(F)(F)F)nc4)cn3)(C1)C2)[C@H]1C[C@@H](O)c2cc(Cl)ccc2O1 [Compound 350, (2R,4R)-6-chloro-4-hydroxy-N-(3-{4-[6-(trifluoromethoxy)pyridin-3-yl]-1H-pyrazol-1-yl}bicyclo[1.1.1]pentan-1-yl)-3,4-dihydro-2H-1-benzopyran-2-carboxamide]	< 10 nM
O=C(NC12CC(n3cc(C(=O)N4CC(COC(F)(F)F)C4)cn3)(C1)C2)[C@H]1C[C@@H](O)c2cc(Cl)c(F)cc2O1 [Compound 363, (2R,4R)-6-chloro-7-fluoro-4-hydroxy-N-[3-(4-{3-[(trifluoromethoxy)methyl]azetidine-1-carbonyl}-1H-pyrazol-1-yl)bicyclo[1.1.1]pentan-1-yl]-3,4-dihydro-2H-1-benzopyran-2-carboxamide]	< 10 nM
O=C(COc1ccc(Cl)c(F)c1)NC12CC(c3ccc(C(=O)N4CC(OC(F)(F)F)C4)nc3)(C1)C2 [Compound 605, 2-(4-chloro-3-fluorophenoxy)-N-(3-{6-[3-(trifluoromethoxy)azetidine-1-carbonyl]pyridin-3-yl}bicyclo[1.1.1]pentan-1-yl)acetamide]	< 10 nM
O=C(NC12CC(c3ccnc(OCCCOC(F)(F)F)c3)(C1)C2)[C@H]1C[C@@H](O)c2cc(Cl)c(F)cc2O1 [Compound 427, (2R,4R)-6-chloro-7-fluoro-4-hydroxy-N-(3-{2-[3-(trifluoromethoxy)propoxy]pyridin-4-yl}bicyclo[1.1.1]pentan-1-yl)-3,4-dihydro-2H-1-benzopyran-2-carboxamide]	< 10 nM
O=C(NC12CC(n3cc4cc(OC(F)F)ccc4n3)(C1)C2)[C@H]1C[C@@H](O)c2cc(Cl)ccc2O1 [Compound 502, (2R,4R)-6-chloro-N-{3-[5-(difluoromethoxy)-2H-indazol-2-yl]bicyclo[1.1.1]pentan-1-yl}-4-hydroxy-3,4-dihydro-2H-1-benzopyran-2-carboxamide]	50 to 250 nM
